{
  "source": "patent US20240285541A1",
  "about": "“SHELF STABLE ORGANIC NUCLEOTIDE COMPOSITIONS AND METHODS OF MANUFACTURING THE SAME” (Glanbia Nutritionals, Inc., priority 2023, published 2024)",
  "assay": "ATP stability over 362 days, processed under acidic and hot-fill conditions",
  "type": "physicochemical",
  "details": "acidic conditions (pH 2.8; b60 also says pH 2.5), hot-fill conditions",
  "excerpt": "FIG. 5 is a graphical representation 500 of the unexpectedly good results achieved through the method and composition described in connection with FIG. 4. Specifically, the graphical representation 500 illustrates a comparison of ATP stability for a composition or product of the disclosure (specifically, Formula A prepared according to method 400) compared against a control ATP product processed under acidic conditions (pH 2.5) and hot-fill conditions. The ATP stability measurements were calculated over three hundred sixty-two (362 days). For the control ATP, pH 2.8 (Δ), y=116.03e^−0.012x, R^2=0.966. For the encapsulated ATP Formula A, pH 2.8 (Δ), y=100.37e^−0.003x, R^2=0.9591.\nSpecifically, Formula A continued to comprise about 33.43 wt % of ATP 100, 200 at the end of the 362 days, compared with the 1.44 wt % of ATP 100, 200 in the control ATP solution.\nFIG. 7 is a graphical representation 700 of the unexpectedly good results achieved through the method and composition described in connection with FIG. 6. Specifically, the graphical representation 700 illustrates a comparison of ATP stability for a composition or product of the disclosure (specifically, Formula B prepared according to method 600) compared against a control ATP product processed under acidic conditions (pH 2.8) and hot-fill conditions. ATP stability measurements were calculated over three hundred sixty-two (362) days. […]",
  "data": [
    {"smiles": "Nc1ncnc2c1ncn2[C@@H]1O[C@H](COP(=O)(O)OP(=O)([O-])OP(=O)([O-])O)[C@@H](O)[C@H]1O.[Na+].[Na+]", "note": "[control ATP, adenosine triphosphate (ATP) disodium salt]", "values": [
      {"measurement": "ATP 100, 200 comprised at the end of the 362 days", "result": 1.44, "unit": "wt %"}
    ]}
  ]
}
